Drawing on patent US10212934B2, “Pesticidal compositions” (BASF AGRO B.V., priority 2014, dated 2019), this text covers Observed efficacy for six compounds.

Format in all cases: cell-based
Common to all, as to conditions: 7 days after inoculation

In one assay the test system is Botrytis cinerea. Description: M2 microtiterplate test, grey mold Botrytis cinerea (Botrci).
For another assay, the system named is Septoria tritici. Description: M4 microtiter test, leaf blotch on wheat caused by Septoria tritici (Septtr).
The subject of the next assay is Alternaria solani. As to the kind of experiment: M5 microtiter test, early blight caused by Alternaria solani (Alteso).
The test system of the next assay is Pyricularia oryzae.
Another assay concerns Leptosphaeria nodorum. Description: M6 microtiter test, wheat leaf spots caused by Leptosphaeria nodorum (Leptno).
Another assay concerns Phytophthora infestans.

Like-named read-outs stand apart in the source and are kept apart here.

In the case of `Cc1cc(C(F)(F)F)nn1CC(=O)N1CCC(c2nc(C3=NOC(c4c(F)cccc4F)C3)cs2)CC1` (racemic) [Oxathiapiprolin (II-1), 1-(4-{4-[(5 RS)-5-(2,6-difluorophenyl)-4,5-dihydro-1,2-oxazol-3-yl]-1,3-thiazol-2-yl}-1-piperidyl)-2-[5-methyl-3-(trifluoromethyl)-1H-pyrazol-1-yl]ethanone], the Observed efficacy with Botrytis cinerea (16 ppm) is recorded as 4%; with Botrytis cinerea (63 ppm), 23%.

With `CC(O)(Cn1cncn1)c1ccc(Oc2ccc(Cl)cc2)cc1C(F)(F)F` (centres unmarked) [I-3, 2-[4-(4-chlorophenoxy)-2-(trifluoromethyl)phenyl]-1-(1,2,4-triazol-1-yl)propan-2-ol], the Observed efficacy is 28% in the assay on Septoria tritici (0.00025 ppm); 9% in the assay with Alternaria solani (0.001 ppm); 42% in the assay with Botrytis cinerea (0.063 ppm); 10% in the assay on Pyricularia oryzae (0.25 ppm); 35% with Leptosphaeria nodorum (0.016 ppm); 12% in the assay with Phytophthora infestans (0.063 ppm).

On to `CNC(=O)Oc1cc(C)c(SC)c(C)c1` [Methiocarb (II-4), 4-methylthio-3,5-xylyl methylcarbamate], for which the Observed efficacy with Septoria tritici (0.063 ppm) was 6%; in the assay on Pyricularia oryzae (63 ppm) it was 36%; in the assay with Phytophthora infestans (63 ppm), 51%.

Compound `CC(c1ccc(C(F)(F)F)nc1)S(C)(=O)=NC#N` (centres unmarked) [Sulfoxaflor (II-3), [methyl(oxo){1-[6-(trifluoromethyl)-3-pyridyl]ethyl}-Λ^6-sulfanylidene]cyanamide] gave an Observed efficacy with Leptosphaeria nodorum (16 ppm (commercial finished formulation diluted with water)) of 0%.

Turning to `CC(C)(C)C(O)C(Oc1ccc(Cl)cc1)n1cncn1` (centres unmarked) [Triadimenol (II-2), (1 RS,2 RS;1 RS,2 SR)-1-(4-chlorophenoxy)-3,3-dimethyl-1-(1H-1,2,4-triazol-1-yl)butan-2-ol], in the assay on Botrytis cinerea (4 ppm), the Observed efficacy is reported as 39%.

Compound `O=c1[c-](-c2cccc(C(F)(F)F)c2)c(=O)[n+](Cc2cncnc2)c2ccccn12` [Triflumezopyrim (II-7), 3,4-dihydro-2,4-dioxo-1-(pyrimidin-5-ylmethyl)-3-(α,α,α-trifluoro-m-tolyl)-2H-pyrido[1,2-a]pyrimidin-1-ium-3-ide] returned an Observed efficacy with Alternaria solani (0.25 ppm) of 36%.
